The supplement of paper PMC4862054

What was measured:
Assay in all cases: normalised response (% of control), CellTiter-Glo; higher = more viable cells (100 = DMSO, 0 = benzethonium chloride kill control)
Settings in all cases: incubation time: 72 h
HCC1143 = test system: HCC1143
Method in brief: (§1)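 CellTox Green fluorescence (485/520 nm) and, after 10 min at room temperature, CellTiter-Glo luminescence were read from breast cancer cell lines incubated 72 h in 384-well plates. Cells were seeded as 20 µl suspension onto compound at 5 concentrations in 10-fold steps over a 10,000-fold range chosen per compound. Each plate was normalised to 0.1 % DMSO (100) and a positive kill control (0). Values are normalised signals, one per concentration.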

MDA-MB-453 = test system: MDA-MB-453
Method in brief: as §1

CAL-85-1 = test system: CAL-85-1
Method in brief: as §1

MDA-MB-468 = test system: MDA-MB-468
Method in brief: as §1

MDA-MB-231 = test system: MDA-MB-231
Method in brief: as §1

HCC1599 = test system: HCC1599
Method in brief: as §1

MFM-223 = test system: MFM-223
Method in brief: as §1

MDA-MB-436 = test system: MDA-MB-436
Method in brief: as §1

MCF-10A = test system: MCF-10A
Method in brief: as §1

SK-BR-3 = test system: SK-BR-3
Method in brief: as §1

BT-549 = test system: BT-549
Method in brief: as §1

HCC1937 = test system: HCC1937
Method in brief: as §1

Hs578T = test system: Hs578T
Method in brief: as §1

CAL-148 = test system: CAL-148
Method in brief: as §1

HDQ-P1 = test system: HDQ-P1
Method in brief: as §1

DU-4475 = test system: DU-4475
Method in brief: as §1

BT-474 = test system: BT-474
Method in brief: as §1

CAL-120 = test system: CAL-120
Method in brief: as §1

CAL-51 = test system: CAL-51
Method in brief: as §1

| Structure (SMILES) | normalised response (HCC1143) [%] | normalised response (MDA-MB-453) [%] | normalised response (CAL-85-1) [%] | normalised response (MDA-MB-468) [%] | normalised response (MDA-MB-231) [%] | normalised response (HCC1599) [%] | normalised response (MFM-223) [%] | normalised response (MDA-MB-436) [%] | normalised response (MCF-10A) [%] | normalised response (SK-BR-3) [%] | normalised response (BT-549) [%] | normalised response (HCC1937) [%] | normalised response (Hs578T) [%] | normalised response (CAL-148) [%] | normalised response (HDQ-P1) [%] | normalised response (DU-4475) [%] | normalised response (BT-474) [%] | normalised response (CAL-120) [%] | normalised response (CAL-51) [%] |
| --- | --- | --- | --- | --- | --- | --- | --- | --- | --- | --- | --- | --- | --- | --- | --- | --- | --- | --- | --- |
| Cc1cc(Nc2nc(N[C@@H](C)c3ncc(F)cn3)ncc2Cl)[nH]n1 [AZD1480] (100 nM) | 107 | 94.1 | 100 | 104 | 97.8 | 111 | 71.9 | 103 | 93.4 | 91.8 | 105 | 101 | 101 | 87.5 | 102 | 92.1 | 99.7 | 97.3 | 117 |
| CC(C)C[C@H](NC(=O)[C@@H](COC(C)(C)C)NC(=O)[C@H](Cc1ccc(O)cc1)NC(=O)[C@H](CO)NC(=O)[C@H](Cc1c[nH]c2ccccc12)NC(=O)[C@H](Cc1cnc[nH]1)NC(=O)[C@@H]1CCC(=O)N1)C(=O)N[C@@H](CCCNC(=N)N)C(=O)N1CCC[C@H]1C(=O)NNC(N)=O [Goserelin] (1000 nM) | 92.3 | 106 | 98.2 | 94.3 | 100 | 106 | 99.6 | 93.8 | 96.5 | 94.3 | 98.6 | 98.2 | 99.4 | 93.1 | 101 | 96.3 | 101 | 106 | 100 |
| Cc1cn(-c2cc(NC(=O)c3ccc(C)c(Nc4nccc(-c5cccnc5)n4)c3)cc(C(F)(F)F)c2)cn1 [Nilotinib] (1000 nM) | 94 | 105 | 102 | 93 | 96.5 | 105 | 97.3 | 103 | 107 | 97.5 | 109 | 96.5 | 105 | 84.4 | 104 | 97.7 | 92.9 | 100 | 70.9 |
| COc1cc(Nc2c(C#N)cnc3cc(OCCCN4CCN(C)CC4)c(OC)cc23)c(Cl)cc1Cl [Bosutinib] (1000 nM) | 84.7 | 94.9 | 72.2 | 81 | 81.6 | 86.8 | 84 | 87.8 | 34.5 | 97.1 | 95.2 | 78.8 | 102 | 101 | 51.2 | 99.8 | 90.7 | 83.8 | 77.2 |
| Nc1ccn([C@@H]2O[C@H](CO)[C@@H](O)C2(F)F)c(=O)n1 [Gemcitabine] (100 nM) | 44.1 | 67.7 | 43.1 | 28.4 | 85 | 39 | 101 | 32.6 | 66.7 | 41.5 | 49.7 | 79.2 | 70 | 56 | 86 | 74.5 | 81.8 | 78.8 | 24.4 |
| O=C(CCCCCCC(=O)Nc1ccccc1)NO [Vorinostat] (1000 nM) | 90.2 | 61.2 | 93.7 | 69.4 | 85.4 | 98.9 | 91.6 | 89.6 | 104 | 89.5 | 100 | 85.2 | 95.8 | 90.6 | 85 | 86.5 | 89.4 | 85.9 | 72.2 |
| CC(=O)[C@]1(O)Cc2c(O)c3c(c(O)c2[C@@H](O[C@H]2C[C@H](N)[C@H](O)[C@H](C)O2)C1)C(=O)c1ccccc1C3=O [Idarubicin] (100 nM) | 102 | 140 | 91 | 64.5 | 94.7 | 123 | 117 | 65.7 | 98.2 | 83.4 | 62.6 | 98 | 82.5 | 63.5 | 103 | 83.1 | 92.3 | 99.7 | 42.6 |
| CCNC(=O)c1noc(-c2cc(C(C)C)c(O)cc2O)c1-c1ccc(CN2CCOCC2)cc1 [NVP-AUY922] (100 nM) | 36.8 | 32.3 | 20.5 | 28.7 | 24.6 | 71 | 43.4 | 44.6 | 15.2 | 35.8 | 41.1 | 28.7 | 39.1 | 27.6 | 23.5 | 0.04 | 25 | 47.5 | 14.8 |
| Cn1cc(C2=C(c3cn(C4CCN(Cc5ccccn5)CC4)c4ccccc34)C(=O)NC2=O)c2ccccc21 [Enzastaurin] (1000 nM) | 92.4 | 96.1 | 109 | 96.3 | 100 | 95.8 | 97.5 | 109 | 91.6 | 97.7 | 95.8 | 98.4 | 104 | 104 | 91.2 | 106 | 93.1 | 103 | 74.7 |
| CC(C)(C)NC(=O)[C@H]1CC[C@H]2[C@@H]3CC[C@H]4NC(=O)C=C[C@]4(C)[C@H]3CC[C@]12C [Finasteride] (1000 nM) | 96.6 | 103 | 95 | 104 | 95.2 | 113 | 103 | 108 | 104 | 102 | 90.7 | 99.6 | 96.6 | 91.8 | 105 | 96.8 | 98.9 | 106 | 94.6 |
